Activity data for three compounds are collected here from ChEMBL document CHEMBL3044926, “Controlling powdery mildew on cucurbit rootstock seedlings in the greenhouse with fungicides and biofungicides” (Crop Prot, 2012).

Data set [1] relates to Cucurbita maxima x Cucurbita moschata. The data set is described as follows: Phytotoxicity against inter-specific squash hybrid Cucurbita moschata x Cucurbita maxima (Strong tosa) rootstock seedlings. In kind it is organism-based. Conditions: in vivo.
For data set [2], the system named is Lagenaria siceraria. Description: Phytotoxicity against Lagenaria siceraria 'Emphasis' rootstock seedlings. In kind it is organism-based. The conditions noted are these: in vivo.
Data set [3] deals with Cucurbita maxima x Cucurbita moschata. The data set is described as follows: Phytotoxicity against inter-specific squash hybrid Cucurbita moschata x Cucurbita maxima (Strong tosa) rootstock seedlings assessed as stunting. In kind it is organism-based. The conditions noted are these: in vivo.
Data set [4] has as its system Lagenaria siceraria. The data set is described as follows: Phytotoxicity against Lagenaria siceraria 'Emphasis' rootstock seedlings assessed as stunting. In kind it is organism-based. The conditions noted are these: in vivo.
For data set [5], the system named is Podosphaera xanthii. The data set is described as follows: Fungicidal activity against Podosphaera xanthii (powdery mildew) inoculated in Lagenaria siceraria Emphasis continuously after first drug application assessed as disease severity on lower surface areas of cotyledons at 20.6% in 1.36 ml/L applied thrice at 5-days intervals measured 5 days after third application under green house conditions (water Rvb = 13.9%). In kind it is functional.

Data set [6] relates to Podosphaera xanthii. Description: Fungicidal activity against Podosphaera xanthii (powdery mildew) inoculated in Lagenaria siceraria Emphasis continuously after first drug application assessed as disease severity on upper surface areas of cotyledons at 20.6% in 1.36 ml/L applied thrice at 5-days intervals measured 5 days after third application under green house conditions (water Rvb = 36.8%). In kind it is functional.

Data set [7] relates to Podosphaera xanthii. Description: Fungicidal activity against Podosphaera xanthii (powdery mildew) inoculated in Lagenaria siceraria Emphasis continuously after first drug application assessed as incidence of disease symptoms on hypocotyls or upper or lower sides of cotyledons at 20.6% in 1.36 ml/L applied thrice at 5-days intervals measured 5 days after third application under green house conditions (water Rvb = 100%). In kind it is functional.

Data set [8] relates to Podosphaera xanthii. The data set is described as follows: Fungicidal activity against Podosphaera xanthii (powdery mildew) inoculated in squash (Cucurbita pepo) rootstock seedlings continuously after first drug application assessed as incidence of disease symptoms on hypocotyls or upper or lower sides of cotyledons at 20.6% in 1.36 ml/L applied thrice at 5-days intervals measured 5 days after third application under green house conditions (water Rvb = …. In kind it is functional.

Data set [9] deals with Podosphaera xanthii. The data set is described as follows: Fungicidal activity against Podosphaera xanthii (powdery mildew) inoculated in inter-specific squash hybrid Strong tosa (Cucurbita moschata x Cucurbita maxima) rootstock seedlings for 7 days prior to drug application assessed as disease severity on upper surface areas of cotyledonsat 20.6% in 1.36 ml/L applied once measured 7 days post-drug dose under greenhouse conditions (water Rvb = 10.2%). In kind it is functional.

The test system of data set [10] is Podosphaera xanthii. The data set is described as follows: Fungicidal activity against Podosphaera xanthii (powdery mildew) inoculated in inter-specific squash hybrid Strong tosa (Cucurbita moschata x Cucurbita maxima) rootstock seedlings for 7 days prior to drug application assessed as disease severity at 20.6% in 1.36 ml/L applied once measured 7 days post-drug dose under greenhouse conditions (water Rvb = 17.5%). In kind it is functional.

Data set [11] has as its system Podosphaera xanthii. The data set is described as follows: Fungicidal activity against Podosphaera xanthii (powdery mildew) inoculated in inter-specific squash hybrid Strong tosa (Cucurbita moschata x Cucurbita maxima) rootstock seedlings for 7 days prior to drug application assessed as incidence of disease symptoms on hypocotyls or upper or lower sides of cotyledons at 20.6% in 1.36 ml/L applied once measured 7 days post-drug dose under greenhouse …. In kind it is functional.

For data set [12], the system named is Podosphaera xanthii. The data set is described as follows: Fungicidal activity against Podosphaera xanthii (powdery mildew) inoculated in inter-specific squash hybrid Strong tosa (Cucurbita moschata x Cucurbita maxima) rootstock seedlings for 7 days prior to drug application assessed as disease severity on lower surface areas of cotyledonsat 20.6% in 1.36 ml/L applied once measured 7 days post-drug dose under greenhouse conditions (water Rvb = 5.1%). In kind it is functional.

The subject of data set [13] is Podosphaera xanthii. The data set is described as follows: Fungicidal activity against Podosphaera xanthii (powdery mildew) inoculated in squash (Cucurbita pepo) rootstock seedlings continuously after first drug application assessed as disease severity at 20.6% in 1.36 ml/L applied thrice at 5-days intervals measured 5 days after third application under green house conditions (water Rvb = 3.9%). In kind it is functional.

The test system of data set [14] is Podosphaera xanthii. Description: Fungicidal activity against Podosphaera xanthii (powdery mildew) inoculated in Lagenaria siceraria Emphasis continuously after first drug application assessed as disease severity at 20.6% in 1.36 ml/L applied thrice at 5-days intervals measured 5 days after third application under green house conditions (water Rvb = 53.5%). In kind it is functional.

Turning to `OO` [HYDROGEN PEROXIDE], the Activity entry in data set [1], in data set [2], in data set [3] and in [4] was “Non-toxic” throughout.
For the compound `O=C([O-])O.[K+]` [POTASSIUM BICARBONATE], the Activity result in [1], in data set [2], in [3] and in data set [4] was “Non-toxic” in each case.
Turning to `CC(C)CC(C)c1sccc1NC(=O)c1cn(C)nc1C(F)(F)F` (stereo not given) [PENTHIOPYRAD], the Activity in data set [5] is 0.3%; in [3] it was “Toxic”; in data set [6], 0.9%; in [7], 14.6%; in data set [8], 0%; in [9], 0%. Further, the Activity in data set [10] is 0.05%; in [11] it was 2.3%; in data set [12], 0.03%; in [4], “Toxic”; in data set [13], 0%; in data set [14] it was 1.3%.
